Measurements reported in PubChem BioAssay AID256 (DTP/NCI, 2004).
Inconclusive results and toxic doses are left out.

Tested on: CD2F1 mice, L1210 leukemia ip, survival T/C
Assay: NCI In Vivo Anticancer Drug Screen. Data for tumor model L1210 Leukemia (intraperitoneal) in CD2F1 (CDF1) mice
Conditions: higher = longer survival
Procedure, shortened: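 Implant tumor; dose compound or vehicle; measure endpoint in both groups; report treated divided by control.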

[1] = endpoint: mean survival time, dose: 100.0 mg/kg/injection, schedule: Q04DX003 (ip), vehicle: saline with Tween-80
[2] = endpoint: mean survival time, dose: 200.0 mg/kg/injection, schedule: Q04DX003 (ip), vehicle: saline with Tween-80
[3] = endpoint: mean survival time, dose: 400.0 mg/kg/injection, schedule: Q04DX003 (ip), vehicle: saline with Tween-80
[4] = endpoint: mean survival time, dose: 50.0 mg/kg/injection, schedule: Q01DX009 (ip), vehicle: saline
[5] = endpoint: mean survival time, dose: 100.0 mg/kg/injection, schedule: Q01DX009 (ip), vehicle: saline
[6] = endpoint: mean survival time, dose: 50.0 mg/kg/injection, schedule: Q01DX009 (ip), vehicle: saline with Tween-80
[7] = endpoint: mean survival time, dose: 100.0 mg/kg/injection, schedule: Q01DX009 (ip), vehicle: saline with Tween-80
[8] = endpoint: mean survival time, dose: 200.0 mg/kg/injection, schedule: Q01DX009 (ip), vehicle: saline with Tween-80
[9] = endpoint: mean survival time, dose: 400.0 mg/kg/injection, schedule: Q01DX009 (ip), vehicle: saline with Tween-80
[10] = endpoint: mean survival time, dose: 5.0 mg/kg/injection, schedule: Q04DX003 (ip), vehicle: saline
[11] = endpoint: mean survival time, dose: 10.0 mg/kg/injection, schedule: Q04DX003 (ip), vehicle: saline
[12] = endpoint: mean survival time, dose: 20.0 mg/kg/injection, schedule: Q04DX003 (ip), vehicle: saline
[13] = endpoint: mean survival time, dose: 25.0 mg/kg/injection, schedule: Q01DX009 (ip), vehicle: saline with Tween-80
[14] = endpoint: mean survival time, dose: 6.25 mg/kg/injection, schedule: Q01DX009 (ip), vehicle: saline
[15] = endpoint: mean survival time, dose: 12.5 mg/kg/injection, schedule: Q01DX009 (ip), vehicle: saline
[16] = endpoint: mean survival time, dose: 25.0 mg/kg/injection, schedule: Q01DX009 (ip), vehicle: saline
[17] = endpoint: mean survival time, dose: 12.5 mg/kg/injection, schedule: Q04DX003 (ip), vehicle: saline
[18] = endpoint: mean survival time, dose: 25.0 mg/kg/injection, schedule: Q04DX003 (ip), vehicle: saline

## C=C(c1ccccc1)c1ccc(N(C)C)cc1
[1]
  T/C: 100 % of control
[2]
  T/C: 91 % of control
[3]
  T/C: 95 % of control

## CC(/C=N/N(C)C)=N\N(C)C
[4]
  T/C: 108 % of control
[5]
  T/C: 96 % of control

## O=C(Nc1c(Cl)cccc1Cl)OCCOc1ccc(Cl)cc1
[6]
  T/C: 94 % of control
[7]
  T/C: 105 % of control
[8]
  T/C: 105 % of control

## O=[N+]([O-])c1ccc(CS(=O)(=O)O)cc1
endpoint: mean survival time, dose: 100.0 mg/kg/injection, schedule: Q04DX002 (ip), vehicle: saline
  T/C: 104 % of control
endpoint: mean survival time, dose: 200.0 mg/kg/injection, schedule: Q04DX002 (ip), vehicle: saline
  T/C: 96 % of control
endpoint: mean survival time, dose: 400.0 mg/kg/injection, schedule: Q04DX002 (ip), vehicle: saline
  T/C: 96 % of control

## O=C1c2ccccc2C(=O)N1Cc1ccccc1
[7]
  T/C: 105 % of control
[8]
  T/C: 100 % of control
[9]
  T/C: 103 % of control

## O=C1CNC(=O)N1CN1CCOCC1
endpoint: median survival time, dose: 50.0 mg/kg/injection, schedule: Q01DX009 (ip), vehicle: Klucel (hydroxypropylcellulose) (HPC)
  T/C: 108 % of control
endpoint: median survival time, dose: 100.0 mg/kg/injection, schedule: Q01DX009 (ip), vehicle: Klucel (hydroxypropylcellulose) (HPC)
  T/C: 116 % of control
endpoint: median survival time, dose: 200.0 mg/kg/injection, schedule: Q01DX009 (ip), vehicle: Klucel (hydroxypropylcellulose) (HPC)
  T/C: 116 % of control
endpoint: median survival time, dose: 400.0 mg/kg/injection, schedule: Q01DX009 (ip), vehicle: Klucel (hydroxypropylcellulose) (HPC)
  T/C: 117 % of control

## CCOC(=O)C(Br)(C(=O)OCC)C(c1ccccc1)c1ccccc1
[1]
  T/C: 98 % of control
[2]
  T/C: 89 % of control
[3]
  T/C: 93 % of control

## CCOC(=O)Nc1cc2c(c(N)n1)NC(CN(C)c1ccccc1)CN2 (stereo not given)
endpoint: mean survival time, dose: 100.0 mg/kg/injection, schedule: Q01DX001 (ip), vehicle: Klucel (hydroxypropylcellulose) (HPC)
  T/C: 94 % of control
endpoint: mean survival time, dose: 200.0 mg/kg/injection, schedule: Q01DX001 (ip), vehicle: Klucel (hydroxypropylcellulose) (HPC)
  T/C: 103 % of control
endpoint: mean survival time, dose: 400.0 mg/kg/injection, schedule: Q01DX001 (ip), vehicle: Klucel (hydroxypropylcellulose) (HPC)
  T/C: 110 % of control

## O=C(CCN1CC1)Nc1ccc(NC(=O)CCN2CC2)cc1
endpoint: mean survival time, dose: 5.0 mg/kg/injection, schedule: Q04DX003 (ip), vehicle: Klucel (hydroxypropylcellulose) (HPC)
  T/C: 106 % of control
endpoint: mean survival time, dose: 80.0 mg/kg/injection, schedule: Q04DX003 (ip), vehicle: Klucel (hydroxypropylcellulose) (HPC)
  T/C: 115 % of control

## N#CC1CCCC1=O (stereo not given)
[10]
  T/C: 101 % of control
[11]
  T/C: 101 % of control
[12]
  T/C: 106 % of control

## N#C/C(=C\C1CCC(Cl)C(Cl)C1)C1CCC([N+](=O)[O-])CC1 (stereo not given)
endpoint: mean survival time, dose: 25.0 mg/kg/injection, schedule: Q04DX002 (ip), vehicle: saline with Tween-80
  T/C: 94 % of control
endpoint: mean survival time, dose: 50.0 mg/kg/injection, schedule: Q04DX002 (ip), vehicle: saline with Tween-80
  T/C: 88 % of control

## O=C(Nc1ccc(Cl)c(Cl)c1)Nc1cc(Cl)ccc1Sc1ccc(Cl)cc1S(=O)(=O)O
[13]
  T/C: 100 % of control
[6]
  T/C: 100 % of control
[7]
  T/C: 105 % of control
[1]
  T/C: 101 % of control

## O=S1(=O)Cc2ccc(Br)cc2C1
[7]
  T/C: 103 % of control
[1]
  T/C: 90 % of control
[8]
  T/C: 101 % of control
[2]
  T/C: 91 % of control
[9]
  T/C: 97 % of control
[3]
  T/C: 90 % of control

## Cc1ccc([N+](=O)[O-])cc1NC(=O)COc1ccc(Cl)cc1
[1]
  T/C: 98 % of control
[2]
  T/C: 94 % of control
[3]
  T/C: 90 % of control

## O=C1c2ccccc2C(=O)c2c1cccc2S(=O)(=O)O
endpoint: mean survival time, dose: 200.0 mg/kg/injection, schedule: Q01DX001 (ip), vehicle: saline with Tween-80
  T/C: 97 % of control

## Nc1cc(N)c2cccnc2c1O
[14]
  T/C: 101 % of control
[15]
  T/C: 114 % of control

## Cc1cn(C2CC(O)C(CS[As](C)C)O2)c(=O)[nH]c1=O (stereo not given)
endpoint: mean survival time, dose: 12.5 mg/kg/injection, schedule: Q01DX005 (ip), vehicle: distilled water + Tween-80
  T/C: 98 % of control
endpoint: mean survival time, dose: 25.0 mg/kg/injection, schedule: Q01DX005 (ip), vehicle: distilled water + Tween-80
  T/C: 102 % of control
endpoint: mean survival time, dose: 50.0 mg/kg/injection, schedule: Q01DX005 (ip), vehicle: distilled water + Tween-80
  T/C: 102 % of control
endpoint: mean survival time, dose: 100.0 mg/kg/injection, schedule: Q01DX005 (ip), vehicle: distilled water + Tween-80
  T/C: 93 % of control

## CCCCCCCCCCCCCCCCOc1ccccc1NC(=O)CC(C)=O
[1]
  T/C: 96 % of control
[2]
  T/C: 94 % of control
[3]
  T/C: 95 % of control

## N/C(=N\O)c1cn(C2OC(CO)C(O)C2O)c2ncncc12 (stereo not given)
[16]
  T/C: 159 % of control
[4]
  T/C: 168 % of control
[5]
  T/C: 102 % of control

## CCN(CC)[S+](C)(=O)/C=C(\[O-])Nc1ccccc1 (stereo not given)
endpoint: mean survival time, dose: 25.0 mg/kg/injection, schedule: Q01DX001 (ip), vehicle: other
  T/C: 103 % of control
endpoint: mean survival time, dose: 50.0 mg/kg/injection, schedule: Q01DX001 (ip), vehicle: other
  T/C: 94 % of control
endpoint: mean survival time, dose: 100.0 mg/kg/injection, schedule: Q01DX001 (ip), vehicle: other
  T/C: 90 % of control

## COc1ccc2ccc[n+](C)c2c1
[14]
  T/C: 94 % of control
endpoint: mean survival time, dose: 6.25 mg/kg/injection, schedule: Q04DX003 (ip), vehicle: saline with Tween-80
  T/C: 98 % of control
[15]
  T/C: 104 % of control
endpoint: mean survival time, dose: 12.5 mg/kg/injection, schedule: Q04DX003 (ip), vehicle: saline with Tween-80
  T/C: 101 % of control
[16]
  T/C: 107 % of control
endpoint: mean survival time, dose: 25.0 mg/kg/injection, schedule: Q04DX003 (ip), vehicle: saline with Tween-80
  T/C: 101 % of control

## CCOc1c(Cl)cc(Cl)cc1C(c1ccc(Cl)cc1S(=O)(=O)O)c1cc(Cl)cc(Cl)c1OCC
[13]
  T/C: 98 % of control
[6]
  T/C: 89 % of control
[7]
  T/C: 86 % of control

## CCCCCCCCCCCCOCC[N+](CCO)(CCO)Cc1ccccc1
endpoint: mean survival time, dose: 0.25 mg/kg/injection, schedule: Q01DX009 (ip), vehicle: saline
  T/C: 91 % of control
endpoint: mean survival time, dose: 0.5 mg/kg/injection, schedule: Q01DX009 (ip), vehicle: saline
  T/C: 107 % of control
endpoint: mean survival time, dose: 1.0 mg/kg/injection, schedule: Q01DX009 (ip), vehicle: saline
  T/C: 90 % of control
[10]
  T/C: 102 % of control
[11]
  T/C: 101 % of control
[12]
  T/C: 93 % of control

## OCP(CO)CO.[Cl][Hg][Cl]
[17]
  T/C: 119 % of control
[18]
  T/C: 116 % of control

## CNC(=S)SCCC(=O)O
endpoint: mean survival time, dose: 100.0 mg/kg/injection, schedule: Q04DX002 (ip), vehicle: saline with Tween-80
  T/C: 113 % of control
endpoint: mean survival time, dose: 200.0 mg/kg/injection, schedule: Q04DX002 (ip), vehicle: saline with Tween-80
  T/C: 102 % of control
endpoint: mean survival time, dose: 400.0 mg/kg/injection, schedule: Q04DX002 (ip), vehicle: saline with Tween-80
  T/C: 102 % of control

## N#C/C(=C1C=C/C(=N\O)C(Cl)=C\1)c1ccccc1
[7]
  T/C: 103 % of control
[1]
  T/C: 88 % of control
[8]
  T/C: 88 % of control
[2]
  T/C: 93 % of control
[3]
  T/C: 96 % of control

## CC(C)c1cc(C(C)(C)C)c(O)c(C(C)(C)C)c1
endpoint: mean survival time, dose: 25.0 mg/kg/injection, schedule: Q01DX009 (ip), vehicle: Klucel (hydroxypropylcellulose) (HPC)
  T/C: 94 % of control
endpoint: mean survival time, dose: 50.0 mg/kg/injection, schedule: Q01DX009 (ip), vehicle: Klucel (hydroxypropylcellulose) (HPC)
  T/C: 102 % of control
endpoint: mean survival time, dose: 100.0 mg/kg/injection, schedule: Q01DX009 (ip), vehicle: Klucel (hydroxypropylcellulose) (HPC)
  T/C: 98 % of control

## CN(C)c1ccc(N=Nc2ccccc2)cc1
endpoint: mean survival time, dose: 31.25 mg/kg/injection, schedule: Q01DX009 (ip), vehicle: saline with Tween-80
  T/C: 98 % of control
endpoint: mean survival time, dose: 62.5 mg/kg/injection, schedule: Q01DX009 (ip), vehicle: saline with Tween-80
  T/C: 96 % of control
endpoint: mean survival time, dose: 62.5 mg/kg/injection, schedule: Q04DX003 (ip), vehicle: saline with Tween-80
  T/C: 93 % of control
endpoint: mean survival time, dose: 125.0 mg/kg/injection, schedule: Q04DX003 (ip), vehicle: saline with Tween-80
  T/C: 95 % of control

## CC1(C)CC(C)(Br)C(Br)C(=O)C1C(O)(C(F)(F)F)C(F)(F)F (stereo not given)
[1]
  T/C: 100 % of control
[2]
  T/C: 97 % of control
[3]
  T/C: 100 % of control

## CCCC1(CCC)NC(=O)NC1=O
endpoint: mean survival time, dose: 100.0 mg/kg/injection, schedule: Q04DX003 (ip), vehicle: other
  T/C: 102 % of control
endpoint: mean survival time, dose: 200.0 mg/kg/injection, schedule: Q04DX003 (ip), vehicle: other
  T/C: 102 % of control

## CCC(C)N(CCCOC(=O)c1ccc(N)cc1)C(C)CC (stereo not given)
[17]
  T/C: 103 % of control
[18]
  T/C: 107 % of control
endpoint: mean survival time, dose: 50.0 mg/kg/injection, schedule: Q04DX003 (ip), vehicle: saline
  T/C: 103 % of control
